For data set [1], the system named is fibrin- and LPS-induced microglia activation. The data set is described as follows: cells. Format: cell-based, rat. The conditions noted are these: for inhibition at 10 µM: Rattus norvegicus.
For data set [2], the system named is LPS-induced microglia activation. Description: Image-based assay of LPS-induced microglia activation (HTS and dose response). The format is cell-based, rat. Conditions: Rattus norvegicus, Microglia; for inhibition at 10 µM: read-out: LPS % inhibition.
The nature of data set [3]: in vitro. The conditions noted are these: rat.
The test system of data set [4] is primary rat microglia. Conditions: rat.
Data set [5] can be described thus: in vitro. Conditions: rat, Cell Toxicity IC50 (uM) [cFib assay].
Data set [6] relates to primary rat microglia. Conditions: rat. The source holds these as a separate data set.
In data set [7] the test system is primary rat microglia. The data set is described as follows: Cell toxicity (dead cells, size <150 μm2) in LPS assay. The conditions noted are these: read-out: Cell Toxicity IC50 (uM) [LPS assay]; LPS assay.
The test system of data set [8] is fibrin-induced microglia activation. Description: Image-based assay of fibrin-induced microglia activation (HTS and dose response). The format is cell-based, rat. The conditions noted are these: for pIC50 / IC50 / inhibition at 10 µM: Rattus norvegicus, Microglia; for inhibition at 10 µM: read-out: Fibrin % inhibition.
Where [9] appears, read: HTS of 1907 compounds, quadrant by fibrin and LPS inhibition.
[10] abbreviates: Microglia, Table 3, read-out: Cherry-picked Hit (Suppl. Table 7).
Where [11] appears, read: Microglia, HTS hit classification, read-out: Hit.
Setting [12] is: quadrant by fibrin and LPS inhibition in HTS of 1907 compounds.
Setting [13] is: 48 h, Table 1, dose response 0.001-20 μM, triplicates, primary rat microglia, 48 h, read-out: LPS IC50.
[14] abbreviates: 48 h, primary microglia HTS, LPS stimulation, increased cell size (>800 μm^2) as marker of activation.
[15] abbreviates: LPS-induced microglia activation, dose response, read-out: LPS IC50 (uM) (Suppl. Table 7).
[16] abbreviates: Table 3, read-out: LPS IC50 (uM) (Suppl. Table 7).
Setting [17] is: dose response, LPS-induced microglia activation, read-out: LPS IC50.
[18] abbreviates: 48 h, Table 1, dose response 0.001-20 μM, triplicates, primary rat microglia, 48 h, read-out: Fibrin IC50.
[19] abbreviates: Table 3, read-out: Fibrin IC50 (uM) (Suppl. Table 7).
The mark [20] stands for this setting: dose response, fibrin-induced microglia activation, read-out: Fibrin IC50.
Where [21] appears, read: fibrin-induced microglia activation, dose response, read-out: Fibrin IC50 (uM) (Suppl. Table 7).
[22] abbreviates: primary microglia HTS, fibrin stimulation, increased cell size (>800 μm^2) as marker of activation.
Setting [23] is: hit classification in microglia HTS, read-out: Cherry-picked Hit (Suppl. Table 7).
The mark [24] stands for this setting: Microglia, read-out: Cherry-picked Hit (Suppl. Table 7).
Setting [25] is: read-out: LPS IC50 (uM) (Suppl. Table 7).
Where [26] appears, read: read-out: Fibrin IC50 (uM) (Suppl. Table 7).

The structures appear in SMILES notation. pIC50: −log10 of the molar value. Where a name gives a salt, the structure may show the parent alone. Read-outs that look alike come from different tables or passages of the source.
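Throughout, for Fibrin % cell toxicity: share of dead cells sized under 150 µm2 at 10 µM in fibrin-stimulated microglia HTS.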

As to `O=P(O)(O)C(O)(Cn1ccnc1)P(=O)(O)O` [Zoledronic acid, reference compound], the “Quadrant (FIG. 5b)” value in data set [1] (setting [9]) is given as “Q3”; in data set [1] (Table 1, screen at 10 μM), “Q3”; in data set [1] (Table 3, screen at 10 μM), “Q3”; in data set [1] (setting [12]), “Q3”. Besides, the inhibition at 10 µM was above 50% in data set [1] (setting [10]), above 50% in data set [1] (setting [11]), 49% in data set [2] (setting [14]) and 83% in data set [8] (setting [22]). The pIC50 in data set [2] (setting [13]) was 5.10; in data set [2] (setting [17]), 5.10; in data set [3] it was below 4.70; in data set [8] (setting [18]), 5.70; in data set [8] (setting [20]) it was 5.70. The IC50 in data set [2] (setting [15]) was 8 µM; in data set [2] (setting [16]) it was 8 µM; in data set [5] (Table 3), above 20 µM; in data set [5] (cFib assay) it was above 20 µM; in data set [7] it was above 20 µM; in data set [8] (setting [19]), 2 µM. For the same compound, the IC50 in data set [8] (setting [21]) was found to be 2 µM. Further, the “LPS % cell toxicity” value in data set [4] is recorded as 1%. Also, in data set [6], the “Fibrin % cell toxicity” value came out at 2%. Besides, in data set [8], the “Fibrin Selectivity” value came to 4. Also, the “Fibrin Selectivity (LOG10)” value in data set [8] came to 0.55.
For the compound `CC(=O)O[C@]1(C(C)=O)CC[C@H]2[C@@H]3C=C(C)C4=CC(=O)CC[C@]4(C)[C@H]3CC[C@@]21C` [Megestrol acetate, reference compound], the “Quadrant (FIG. 5b)” value in data set [1] (setting [9]) was “Q3”; in data set [1] (Table 1, screen at 10 μM), “Q3”; in data set [1] (Table 3, screen at 10 μM), “Q3”. Further, the figures for the inhibition at 10 µM in data set [1] (setting [10]), in data set [1] (setting [11]) and in data set [2] (setting [14]) were above 50%, above 50% and 24%, respectively. The pIC50 was below 4.70 in data set [2] (setting [13]); below 4.70 in data set [2] (setting [17]); below 4.70 in data set [3]; 5.30 in data set [8] (setting [18]); 5.30 in data set [8] (setting [20]). The IC50 is above 20 µM in data set [2] (setting [15]); above 20 µM in data set [2] (setting [16]); above 20 µM in data set [5] (Table 3); above 20 µM in data set [5] (cFib assay); above 20 µM in data set [7]; 5 µM in data set [8] (setting [19]). Also, the IC50 in data set [8] (setting [21]) is 5 µM. In data set [6], the “Fibrin % cell toxicity” value stood at 1%. Moreover, the “Fibrin Selectivity” value in data set [8] worked out at 4. Also, in data set [8], the “Fibrin Selectivity (LOG10)” value is 0.63.
`O=c1[nH]cc(F)c(=O)[nH]1` [Fluorouracil, reference compound]: the “Quadrant (FIG. 5b)” value in data set [1] (setting [9]) was “Q3”; in data set [1] (Table 1, screen at 10 μM), “Q3”; in data set [1] (Table 3, screen at 10 μM), “Q3”; in data set [1] (setting [12]), “Q3”. Further, the inhibition at 10 µM in data set [1] (setting [10]) was above 50%; in data set [1] (setting [11]) it was above 50%; in data set [2] (setting [14]), 40%; in data set [8] (setting [22]), 56%. The pIC50 was below 4.70 in data set [2] (setting [13]); below 4.70 in data set [2] (setting [17]); below 4.70 in data set [3]; 5.15 in data set [8] (setting [18]); 5.15 in data set [8] (setting [20]). For the same compound, the IC50 in data set [2] (setting [15]) was above 20 µM; in data set [2] (setting [16]) it was above 20 µM; in data set [5] (Table 3), above 20 µM; in data set [5] (cFib assay), above 20 µM; in data set [7], above 20 µM; in data set [8] (setting [19]), 7 µM. In data set [8] (setting [21]), the IC50 is 7 µM. The “LPS % cell toxicity” value in data set [4] turned out to be 1%. Moreover, in data set [6], the “Fibrin % cell toxicity” value stood at 1%. The “Fibrin Selectivity” value in data set [8] was 3. Further, the “Fibrin Selectivity (LOG10)” value in data set [8] amounted to 0.44.
As to `C[C@H]1C[C@@H]2[C@H]([C@@H](O)C[C@@]3(C)[C@H]2CC[C@]3(O)C(=O)CO)[C@@]2(C)C=CC(=O)C=C12` [Methylprednisolone, reference compound], the “Quadrant (FIG. 5b)” value is on record as “Q2” in data set [1] (setting [9]); “Q2” in data set [1] (Table 1, screen at 10 μM); “Q2” in data set [1] (Table 2, screen at 10 μM); “Q2” in data set [1] (Table 3, screen at 10 μM); “Q2” in data set [1] (setting [12]). Also, the inhibition at 10 µM in data set [1] (setting [10]) was above 50%; in data set [1] (setting [11]), above 50%; in data set [2] (setting [14]), 86%; in data set [8] (setting [22]), 110%. Also, the pIC50 in data set [2] (setting [13]) was 7.70; in data set [2] (Table 7, read-out: LPS_IC50) it was 8.70; in data set [2] (setting [17]), 7.70; in data set [3], below 4.70; in data set [8] (setting [18]), above 9.00; in data set [8] (Table 7, read-out: fib_IC50), 8.52. Moreover, the pIC50 in data set [8] (setting [20]) was above 9.00. Further, the IC50 in data set [2] (setting [15]) is 0.02 µM; in data set [2] (setting [16]), 0.02 µM; in data set [5] (Table 3), above 20 µM; in data set [5] (cFib assay), above 20 µM; in data set [7], above 20 µM; in data set [8] (setting [19]), below 0.001 µM. For the same compound, in data set [8] (setting [21]), the IC50 was below 0.001 µM. For the same compound, in data set [4], the “LPS % cell toxicity” value stood at 2%. For the same compound, in data set [6], the “Fibrin % cell toxicity” value came out at 3%.
For the compound `COC(=O)C(c1ccccc1)C1CCCCN1` (stereo not drawn) [Methylphenidate hydrochloride, reference compound], the “Quadrant (FIG. 5b)” value in data set [1] (setting [9]) was “Q2”; in data set [1] (Table 1, screen at 10 μM), “Q2”; in data set [1] (setting [12]), “Q2”. In addition, the inhibition at 10 µM was above 50% in data set [1] (setting [11]), above 50% in data set [1] (setting [23]), 75% in data set [2] (setting [14]) and 81% in data set [8] (setting [22]). Besides, the pIC50 in data set [2] (setting [13]), in data set [2] (setting [17]), in data set [3], in data set [8] (setting [18]) and in data set [8] (setting [20]) was below 4.70 in each case. In addition, the IC50 in data set [2] (setting [15]), in data set [5] (cFib assay) and in data set [8] (setting [21]) was above 20 µM throughout. Also, the “LPS % cell toxicity” value in data set [4] was 1%. Moreover, the “Fibrin % cell toxicity” value in data set [6] worked out at 2%.
For the compound `C[C@@H](O)[C@H]1C(=O)N2C(C(=O)O)=C(SCCN=CN)C[C@H]12` [Imipenem, reference compound], the “Quadrant (FIG. 5b)” value in data set [1] is on record as “Q3”. Besides, the inhibition at 10 µM in data set [1] (setting [24]) is above 50%; in data set [1] (Microglia, read-out: Hit) it was above 50%. Moreover, the pIC50 is below 4.70 in data set [2] (48 h, read-out: LPS IC50); below 4.70 in data set [3]; below 4.70 in data set [8] (48 h, read-out: Fibrin IC50). Besides, the IC50 in data set [2] (read-out: LPS IC50 (uM)), in data set [2] (setting [25]), in data set [5], in data set [8] (read-out: Fibrin IC50 (uM)) and in data set [8] (setting [26]) was above 20 µM in each case. The “LPS % cell toxicity” value in data set [4] is given as 0%. The “Fibrin % cell toxicity” value in data set [6] was 1%.
Consider `O=C1NC(=O)C(c2ccccc2)(c2ccccc2)N1` [Phenytoin sodium, reference compound], for which the “Quadrant (FIG. 5b)” value is recorded as “Q2” in data set [1] (setting [9]); “Q2” in data set [1] (Table 1, screen at 10 μM); “Q2” in data set [1] (setting [12]). The inhibition at 10 µM is above 50% in data set [1] (setting [11]), above 50% in data set [1] (setting [23]), 63% in data set [2] (setting [14]) and 82% in data set [8] (setting [22]). In addition, the pIC50 in data set [2] (setting [13]), in data set [2] (setting [17]), in data set [3], in data set [8] (setting [18]) and in data set [8] (setting [20]) was below 4.70 each time. The IC50 in data set [2] (setting [15]), in data set [5] (cFib assay) and in data set [8] (setting [21]) was above 20 µM each time. The “LPS % cell toxicity” value in data set [4] is 1%. Moreover, the “Fibrin % cell toxicity” value in data set [6] is listed as 1%.
As to `COc1ccc(OC)c(C(O)CNC(=O)CN)c1` (stereo not drawn) [Midodrine hydrochloride, reference compound], in data set [1], the “Quadrant (FIG. 5b)” value is given as “Q2”. Also, the inhibition at 10 µM in data set [1] (setting [24]) is above 50%; in data set [1] (Microglia, read-out: Hit), above 50%; in data set [2] (48 h), 52%; in data set [8] it was 95%. For the same compound, the pIC50 in data set [2] (48 h, read-out: LPS IC50) is below 4.70; in data set [3] it was below 4.70; in data set [8] (48 h, read-out: Fibrin IC50), below 4.70. Besides, the IC50 in data set [2] (read-out: LPS IC50 (uM)), in data set [2] (setting [25]), in data set [5], in data set [8] (read-out: Fibrin IC50 (uM)) and in data set [8] (setting [26]) was above 20 µM throughout. Moreover, in data set [4], the “LPS % cell toxicity” value stood at 1%. For the same compound, in data set [6], the “Fibrin % cell toxicity” value is 3%.
